Measurements from patent US10757937B2, “Sulfonamides that activate ABA receptors” (The Regents of the University of California, priority 2014, dated 2020).
Like-named read-outs stand apart in the source and are kept apart here.

Experiments:
PYL1 = biological target: T1, PYL1 (Arabidopsis thaliana, UniProt Q8VZS8); experiment: receptor-mediated PP2C (HAB1) inhibition in vitro assay; format: biochemical; conditions: for remaining activity at 50 µM: 50 uM of the test compound
T1 construct: 6X-His; made in house; host or cells: E. coli BL21[DE3]pLysS
T1 sequence (Q8VZS8 1-221): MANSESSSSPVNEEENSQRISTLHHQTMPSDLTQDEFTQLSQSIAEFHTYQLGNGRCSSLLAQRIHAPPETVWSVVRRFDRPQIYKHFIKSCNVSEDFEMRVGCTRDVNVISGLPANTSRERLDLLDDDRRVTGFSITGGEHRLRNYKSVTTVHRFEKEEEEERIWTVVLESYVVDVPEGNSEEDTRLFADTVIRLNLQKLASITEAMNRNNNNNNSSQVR
T1 sequence (Q9CAJ0 23-511 partner): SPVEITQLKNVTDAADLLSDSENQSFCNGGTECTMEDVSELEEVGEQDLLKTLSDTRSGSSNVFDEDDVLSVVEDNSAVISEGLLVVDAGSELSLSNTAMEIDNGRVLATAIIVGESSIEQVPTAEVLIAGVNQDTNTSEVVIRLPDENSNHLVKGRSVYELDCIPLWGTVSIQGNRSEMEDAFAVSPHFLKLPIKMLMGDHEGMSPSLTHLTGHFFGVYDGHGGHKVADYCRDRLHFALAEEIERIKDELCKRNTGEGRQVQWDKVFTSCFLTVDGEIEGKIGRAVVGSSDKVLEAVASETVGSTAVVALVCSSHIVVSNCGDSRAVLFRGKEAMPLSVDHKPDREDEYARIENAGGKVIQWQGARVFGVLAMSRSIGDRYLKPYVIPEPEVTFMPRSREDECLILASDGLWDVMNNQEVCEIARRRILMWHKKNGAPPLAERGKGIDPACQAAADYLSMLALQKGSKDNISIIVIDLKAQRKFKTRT
Summary of the method: (§1)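 Fluorogenic readout: 4-methylumbelliferyl-phosphate hydrolysis by 50 nM GST-HAB1 plus 2:1 His-receptor; Tris-OAc pH 7.9, NaCl, 1 mM MnCl2, β-ME. Compounds at 25 μM or 50 uM single dose; IC50 from dose curves for selected compounds.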

PYL3 = biological target: T2, PYL3 (Arabidopsis thaliana, UniProt Q9SSM7); experiment: as above; format: biochemical; conditions: for remaining activity at 50 µM: 50 uM of the test compound
T2 construct: 6X-His; made in house; host or cells: E. coli BL21[DE3]pLysS
T2 sequence (Q9SSM7 1-209): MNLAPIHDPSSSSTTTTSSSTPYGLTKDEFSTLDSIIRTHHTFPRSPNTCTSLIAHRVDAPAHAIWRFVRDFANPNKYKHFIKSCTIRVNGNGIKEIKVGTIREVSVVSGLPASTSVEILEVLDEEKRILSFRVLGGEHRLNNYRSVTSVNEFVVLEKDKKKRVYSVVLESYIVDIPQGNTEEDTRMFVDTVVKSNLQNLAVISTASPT
T2 sequence (Q9CAJ0 23-511 partner): T1 sequence (Q9CAJ0 23-511 partner)
Summary of the method: as §1

[1] = Table XII-B, calculated from dose curves, read-out: PP2C Activity (IC50 in uM) PYL1
[2] = Table XII-B, calculated from dose curves, read-out: PP2C Activity (IC50 in uM) PYL3
[3] = Table VII, read-out: PP2C Dose Curves PYL3 (IC50)
[4] = Table VII, read-out: PP2C Dose Curves PYL1 (IC50)

In the case of `O=C(NS(=O)(=O)Cc1ccc(F)cc1)C1(c2ccccc2)CCCCC1` [Compound 64], the remaining activity at 50 µM (PYL1) is reported as 102%, the IC50 (PYL1; [1]) is reported as over 50 µM and the remaining activity at 50 µM (PYL3) is reported as 97.4%. It also gave an IC50 (PYL3; [2]) of over 50 µM.
For `N#Cc1ccc(CS(=O)(=O)NC(=O)C(c2ccc(F)cc2)c2ccc(F)cc2)cc1` [Compound 72, N-[(4-Cyanophenyl)methanesulfonyl]-2,2-bis(4-fluorophenyl)acetamide], the remaining activity at 50 µM (PYL1) was 94.2%, the IC50 (PYL1; [1]) was over 50 µM and the remaining activity at 50 µM (PYL3) was 100%. For the same compound, the IC50 (PYL3; [2]) was over 50 µM.
Work on `N#Cc1ccc(CS(=O)(=O)NC(=O)C2(c3ccsc3)CCCCC2)cc1Br` [Compound 106, N-[(4-Cyano-3-bromophenyl)methanesulfonyl]-1-(thiophen-3-yl)cyclohexane-1-carboxamide] yielded a remaining activity at 50 µM (PYL1) of 94.3%, an IC50 (PYL1; [1]) of over 50 µM and a remaining activity at 50 µM (PYL3) of 96.9%. It also gave an IC50 (PYL3; [2]) of over 50 µM.
For `CC1(C)CCC(C(=O)NS(=O)(=O)Cc2ccc(C#N)cc2)(c2ccc(F)cc2)CC1` [Compound 68, N-[(4-Cyanophenyl)methanesulfonyl]-1-(4-fluorophenyl)-4,4-dimethylcyclohexane-1-carboxamide], the remaining activity at 50 µM (PYL1) was 96%, the IC50 (PYL1; [1]) was over 50 µM and the remaining activity at 50 µM (PYL3) was 98.3%. For the same compound, the IC50 (PYL3; [2]) was over 50 µM.
`CC(C)(C(=O)NS(=O)(=O)Cc1ccc(C#N)cc1)c1cccc(C#N)c1` [Compound 18] was tested, and the IC50 (PYL3; [3]) was over 50 µM.
In the case of `N#Cc1ccc(CS(=O)(=O)NC(=O)C2(c3ccc(Br)cc3)CC2)cc1` [Compound 30], the IC50 (PYL3; [3]) is reported as over 50 µM.
`N#Cc1ccc(CS(=O)(=O)NC(=O)C2(c3ccsc3)CCCCC2)cc1` [Compound 78, N-[(4-Cyanophenyl)methanesulfonyl]-1-(thiophen-3-yl)cyclohexane-1-carboxamide] showed a remaining activity at 50 µM (PYL1) of 95.6%, an IC50 (PYL1; [1]) of over 50 µM and a remaining activity at 50 µM (PYL3) of 103%. The IC50 (PYL3; [2]) was over 50 µM.
In the case of `N#Cc1ccc(CS(=O)(=O)NC(=O)C2(c3cccc(C#N)c3)CC2)cc1` [Compound 50], the IC50 (PYL3; [3]) is reported as 20.8 µM.
`CC1=CC(=O)CC(C)(C)[C@@]1(O)/C=C/C(C)=C\C(=O)O` [ABA, Abscisic acid, reference compound] was tested, and the “PP2C Activity PYL1” value (PYL1; ABA (10 μM)) was 5.9 and the “PP2C Activity PYL3” value (PYL3; ABA (10 μM)) was 5.4.
In the case of `N#Cc1ccc(CS(=O)(=O)NC(=O)C(C2CCCCC2)C2CCCCC2)cc1` [Compound 73, N-[(4-Cyanophenyl)methanesulfonyl]-2,2-cyclohexylacetamide], the remaining activity at 50 µM (PYL1) is reported as 95.5%, the IC50 (PYL1; [1]) is reported as over 50 µM and the remaining activity at 50 µM (PYL3) is reported as 92.7%. For the same compound, the IC50 (PYL3; [2]) was over 50 µM.
In the case of `CCC(CC)(C(=O)NS(=O)(=O)Cc1ccc([N+](=O)[O-])cc1)c1ccccc1` [Compound 19], the IC50 (PYL1; [4]) is reported as over 50 µM and the IC50 (PYL3; [3]) is reported as over 50 µM.
Compound `N#Cc1ccc(CS(=O)(=O)NC(=O)C2(c3ccccc3)CCCCC2)cc1` [Compound 69, N-[(4-Cyanophenyl)methanesulfonyl]-1-phenylcyclohexane-1-carboxamide] has a remaining activity at 50 µM (PYL1) of 98.4%, an IC50 (PYL1; [1]) of over 50 µM and a remaining activity at 50 µM (PYL3) of 103%. It also gave an IC50 (PYL3; [2]) of over 50 µM.
For `O=C(NS(=O)(=O)Cc1ccc([N+](=O)[O-])cc1)C1(c2ccccc2)CCCCC1` [Compound 63], the remaining activity at 50 µM (PYL1) was 101%, the IC50 (PYL1; [1]) was over 50 µM and the remaining activity at 50 µM (PYL3) was 127%. It also gave an IC50 (PYL3; [2]) of over 50 µM.
For `N#Cc1ccc(CS(=O)(=O)NC(=O)C2(c3ccc(F)cc3)CCCC2)cc1` [Compound 24], the IC50 (PYL1; [4]) was over 50 µM.
With `N#Cc1ccc(CS(=O)(=O)NC(=O)C2(c3cccs3)CCCCC2)cc1` [Compound 75, N-[(4-Cyanophenyl)methanesulfonyl]-1-(thiophen-2-yl)cyclohexane-1-carboxamide] the remaining activity at 50 µM (PYL1) was 95.5%, the IC50 (PYL1; [1]) was over 50 µM and the remaining activity at 50 µM (PYL3) was 95.4%. It also gave an IC50 (PYL3; [2]) of over 50 µM.
Compound `CC1CCC(C(=O)NS(=O)(=O)Cc2ccc(C#N)cc2)(c2ccc(F)cc2)CC1` (centres unmarked) [Compound 67, N-[(4-Cyanophenyl)methanesulfonyl]-1-(4-fluorophenyl)-4-methylcyclohexane-1-carboxamide] has a remaining activity at 50 µM (PYL1) of 98.3%, an IC50 (PYL1; [1]) of over 50 µM and a remaining activity at 50 µM (PYL3) of 101%. For the same compound, the IC50 (PYL3; [2]) was over 50 µM.
With `N#Cc1ccc(CS(=O)(=O)NC(=O)C(c2ccccc2)c2ccccc2)cc1` [Compound 71, N-[(4-Cyanophenyl)methanesulfonyl]-2,2-diphenylacetamide] the remaining activity at 50 µM (PYL1) was 93.8%, the IC50 (PYL1; [1]) was over 50 µM and the remaining activity at 50 µM (PYL3) was 102%. The IC50 (PYL3; [2]) was over 50 µM.
For `CC(C)COC(=O)NS(=O)(=O)Cc1ccc(C#N)cc1` [Compound 65, 2-Methylpropyl N-[(4-cyanophenyl)methanesulfonyl]carbamate], the remaining activity at 50 µM (PYL1) was 91.7%, the IC50 (PYL1; [1]) was over 50 µM and the remaining activity at 50 µM (PYL3) was 92.9%. The IC50 (PYL3; [2]) was over 50 µM.
